Results as given in ChEMBL document CHEMBL6071133, “Discovery of novel penetrating peptides able to target human leukemia and lymphoma for enhanced PROTAC delivery” (Eur J Med Chem, 2024).

What was measured:
[1] = Drug uptake in human CCRF-CEM cells assessed as membrane penetration by measuring increase in fluorescence intensity at 5 umol/L incubated for 2 hrs by flow cytometry relative to C9C; format: ADME, cell-based; conditions: 5 µM, dose 5 µmol/L
[2] = Drug uptake in human CCRF-CEM cells assessed as increase in fluorescence intensity at 1 to 10 uM incubated for 2 hrs by flow cytometry; format: ADME, cell-based; conditions: dose 1-10 µM
[3] = Drug uptake in human CCRF-CEM cells assessed as increase in fluorescence intensity at 5 umol/L measured for 60 to 240 mins by flow cytometry; format: ADME, cell-based; conditions: 5 µM, TDE = time-dependent effect, time 60-240 min, dose 5 µmol/L
[4] = Drug uptake in human CCRF-CEM cells assessed as increase in fluorescence intensity at 1 to 10 umol/L incubated for 2 hrs by cell imaging based fluorescence microscopic analysis; format: ADME; conditions: dose 1-10 µmol/L
[5] = Drug uptake in human THP-1 cells assessed as increase in fluorescence intensity at 10 umol/L incubated for 2 hrs by cell imaging based fluorescence microscopic analysis; format: ADME; conditions: thp-1, 2 h, 10 µM, dose 10 µmol/L
[6] = Drug uptake in human K562 cells assessed as perinuclear distribution and colocalization with nucleus at 10 umol/L incubated for 2 hrs by confocal laser microscopy; format: ADME, cell-based; conditions: k562, 2 h, 10 µM, dose 10 µmol/L
[7] = Drug uptake in human KU812 cells assessed as perinuclear distribution and colocalization with nucleus at 10 umol/L incubated for 2 hrs by confocal laser microscopy; format: ADME, cell-based; conditions: ku812, 2 h, 10 µM, dose 10 µmol/L
[8] = Drug uptake in human CCRF-CEM cells assessed as perinuclear distribution and colocalization with nucleus at 10 umol/L incubated for 2 hrs by confocal laser microscopy; format: ADME, cell-based; conditions: 10 µM, dose 10 µmol/L
[9] = Drug uptake in human CCRF-CEM cells assessed as increase in fluorescence intensity at 5 umol/L measured for 5 to 60 mins by flow cytometry; format: ADME, cell-based; conditions: 5 µM, time 5-60 min, dose 5 µmol/L

CC(C)C[C@@H]1NC(=O)[C@H](Cc2csc3ccccc23)NC(=O)[C@@H](Cc2ccccc2)NC(=O)[C@H](Cc2ccccc2)NC(=O)[C@H](CCCNC(=N)N)NC(=O)[C@H](CCCCN)NC(=O)[C@H](CCC(=O)O)NC(=O)[C@H](CO)NC(=O)[C@H](CCCNC(=N)N)NC1=O
fold change (FC) [1]: 2.97
Drug uptake [2]: Dose-Dependent Effect
Drug uptake [3]: Tde
Drug uptake [4]: Active
Drug uptake [5]: Active
Drug uptake [6]: Active
Drug uptake [7]: Active
Drug uptake [8]: Active
Drug uptake [9]: Active
